Experiment [1] deals with Acyl-homoserine lactone acylase PvdQ (Pseudomonas aeruginosa (strain LESB58), UniProt Q9I194). In words: PvdQ acylase enzyme activity blockers – biochemical, fluorescence, plate reader and imaging, cherry-picks, dose response (AID 493231).
The nature of experiment [2]: Counterscreen for IDE inhibitors: Luminescence-based cell-based high throughput dose response assay to identify compounds that are cytotoxic to HEK cells. [Related pubchem assays: 434962 (Primary screen (IDE inhibitors in singlicate)), 449730 (Counterscreen (Cytotoxicity in triplicate)), 435028 (Confirmation (IDE inhibitors in triplicate)) …. The format is functional. The conditions noted are these: HEK293. Background: Counterscreens check selectivity or assay interference.

Experiment [3] concerns the target T1, Insulin-degrading enzyme (Homo sapiens, UniProt P14735).
T1 sequence (P14735 whole entry): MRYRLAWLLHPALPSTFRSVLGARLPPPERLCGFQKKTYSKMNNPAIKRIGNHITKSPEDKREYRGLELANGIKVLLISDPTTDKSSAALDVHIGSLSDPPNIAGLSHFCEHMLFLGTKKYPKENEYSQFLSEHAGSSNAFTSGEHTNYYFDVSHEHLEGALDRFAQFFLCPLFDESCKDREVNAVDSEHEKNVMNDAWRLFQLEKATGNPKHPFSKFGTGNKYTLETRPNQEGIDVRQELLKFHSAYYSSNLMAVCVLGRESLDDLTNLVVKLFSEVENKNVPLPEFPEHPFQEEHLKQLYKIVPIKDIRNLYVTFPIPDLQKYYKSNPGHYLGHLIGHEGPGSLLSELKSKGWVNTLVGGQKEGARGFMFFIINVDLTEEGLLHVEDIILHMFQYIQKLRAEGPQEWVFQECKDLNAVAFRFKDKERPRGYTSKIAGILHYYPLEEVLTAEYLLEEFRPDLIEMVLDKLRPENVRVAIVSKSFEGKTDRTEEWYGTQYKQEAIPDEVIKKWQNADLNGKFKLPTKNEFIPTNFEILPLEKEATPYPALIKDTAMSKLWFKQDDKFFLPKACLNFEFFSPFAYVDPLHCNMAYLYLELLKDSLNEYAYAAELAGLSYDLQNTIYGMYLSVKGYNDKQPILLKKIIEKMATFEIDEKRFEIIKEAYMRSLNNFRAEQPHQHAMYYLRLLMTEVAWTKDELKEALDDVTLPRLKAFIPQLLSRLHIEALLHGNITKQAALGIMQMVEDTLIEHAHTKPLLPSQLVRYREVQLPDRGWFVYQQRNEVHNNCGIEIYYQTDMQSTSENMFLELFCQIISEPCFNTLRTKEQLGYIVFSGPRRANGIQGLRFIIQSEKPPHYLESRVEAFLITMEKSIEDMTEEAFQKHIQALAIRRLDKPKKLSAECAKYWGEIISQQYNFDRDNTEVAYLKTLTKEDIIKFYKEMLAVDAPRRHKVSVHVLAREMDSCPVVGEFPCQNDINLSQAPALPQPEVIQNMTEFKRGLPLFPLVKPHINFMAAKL
Put plainly: Dose Response: Fluorescence polarization-based cell-based high throughput dose response assay for inhibitors of insulin-degrading enzyme (IDE). [Related pubchem assays: 434962 (Primary screen (IDE inhibitors in singlicate)), 449730 (Counterscreen (Cytotoxicity in triplicate)), 435028 (Confirmation (IDE inhibitors in triplicate)), 434984 (Summary …. The format is functional. (In general: In fluorescence polarisation assays a small probe gives low polarisation when free and higher when bound to something large.)

The nature of experiment [4]: mitochondrial function rescue without frataxin homolog – Friedreich's ataxia, plus single-dose screen, dose response (AID 1465).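 Note: yeast depleted of Yfh1p frataxin homolog grown on glycerol needing respiration; WST-1 tetrazolium dye reduction as measure of cellular dehydrogenase metabolic activity.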 The format is functional.
The target in experiment [5] is Large T antigen (Simian virus 40, UniProt P03070). The format is functional, Betapolyomavirus macacae.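 Note: Confirmatory-stage PubChem screen for compounds that inhibit SV40 T antigen.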
Experiment [6] can be described thus: viability of PTEN-deleted HCT116 cells – cell-based, HCT116 PTEN knockout, dose response (AID 1047).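 Note: HCT116 colon tumor cells with PTEN knocked out; cells exposed to compound for 60 hours before readout; potency for loss of cell viability measured by luminescence.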 The format is functional.
The target of experiment [7] is Glucose-6-phosphate 1-dehydrogenase (Homo sapiens, UniProt P11413). Put plainly: inhibition of Homo sapiens G6PD, dose series – biochemical, fluorescence, selectivity assay for P. falciparum G6PD inhibitor project, dose response (AID 504792). It counts as functional.
Experiment [8] addresses T2, Voltage-gated N-type calcium channel alpha-1B subunit/Amyloid beta A4 precursor protein-binding family A member 1 (Homo sapiens, UniProt Q00975+Q02410). It counts as protein assay.
The target in experiment [9] is T2, Voltage-gated N-type calcium channel alpha-1B subunit/Amyloid beta A4 precursor protein-binding family A member 1. The format is protein assay. This is another data set of the same source.
The target in experiment [10] is DNA dC->dU-editing enzyme APOBEC-3G (Homo sapiens, UniProt Q9HC16). In words: Dose Response confirmation of small molecule APOBEC3G DNA Deaminase Inhibitors via a fluorescence-based single-stranded DNA deaminase assay. [Related pubchem assays (depositor defined):AID493012, AID493028]. The format is functional.
Experiment [11] can be described thus: viability of HCT116 lacking mutant beta-catenin – cell-based, human colon tumor, dose response (AID 1045).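 Note: HCT116 colon tumor cells with beta catenin knocked out; cells exposed to compound for 60 hours.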 The format is functional.
The nature of experiment [12]: alpha-synuclein stem-loop luciferase translation blockers – H4 neuroglioma cells, luminescence, confirmation (AID 1988). It counts as functional, cell-based.
Experiment [13] can be described thus: alpha-synuclein stem-loop translation blockers – luminescence, H4 neuroglioblastoma cells, dose confirmation, confirmation (AID 2454).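 Note: H4 neuroglioblastoma cells carrying an alpha-synuclein 5'UTR luciferase reporter; potency for inhibition of the luciferase signal.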 It counts as functional, cell-based.
For experiment [14], the target named is Photoreceptor-specific nuclear receptor (Homo sapiens, UniProt Q9Y5X4). The format is functional, cell-based.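 Note: CHO-S cells with Gal4-NCOR and VP16-NR2E3 two-hybrid luciferase reporter.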
Experiment [15] is described as follows: Luminescence Cell-Based Dose Response HTS to Identify Inhibitors of 5'UTR Stem-Loop Driven Prion Protein mRNA Translation in H4 Neuroglioblastoma Cells. [Related pubchem assays: 1827 (Project Summary), 1813 (Primary HTS)]. The format is functional.
A short description of experiment [16]: luciferase reporter signal reduction – luminescence, H4-C neuroglioblastoma cells, dose response (AID 2458).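 Note: H4 neuroglioblastoma cells stably carrying a luciferase reporter gene fusion.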 It counts as functional, cell-based. (In general: Reporter assays use an easily measured gene product as a stand-in for the process of interest.)
Experiment [17] is described as follows: luciferase reporter signal suppression in cells – H4 neuroglioma cells, luminescence, dose response (AID 1990). The format is functional, cell-based.
Experiment [18] is described as follows: cells. It counts as functional, cell-based.
The target of experiment [19] is T3, Mannose-6-phosphate isomerase (Homo sapiens, UniProt P34949).
T3 sequence (P34949 whole entry): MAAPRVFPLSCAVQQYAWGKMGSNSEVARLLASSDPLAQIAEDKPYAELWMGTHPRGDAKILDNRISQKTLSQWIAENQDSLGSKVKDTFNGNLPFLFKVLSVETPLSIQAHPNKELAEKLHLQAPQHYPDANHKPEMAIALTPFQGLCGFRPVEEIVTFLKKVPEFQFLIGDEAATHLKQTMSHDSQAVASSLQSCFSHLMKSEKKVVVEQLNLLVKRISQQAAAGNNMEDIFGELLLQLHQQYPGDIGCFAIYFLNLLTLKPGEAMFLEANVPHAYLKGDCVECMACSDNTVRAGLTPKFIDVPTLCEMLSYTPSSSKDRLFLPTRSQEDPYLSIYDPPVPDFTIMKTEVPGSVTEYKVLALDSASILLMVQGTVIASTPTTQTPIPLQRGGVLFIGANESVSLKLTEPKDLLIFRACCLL
In words: phosphomannose isomerase inhibition – biochemical, fluorescence intensity, confirmation (AID 1535).

For experiment [20], the target named is Phosphomannomutase 2 (Homo sapiens, UniProt O15305). Put plainly: Counter screen SAR assay for PMM2 inhibitors via a fluorescence intensity assay. [Related pubchem assays (depositor defined):AID1545, AID1574].
Experiment [21] concerns the target Phosphoethanolamine/phosphocholine phosphatase (Homo sapiens, UniProt Q8TCT1). In words: SAR assay for compounds that inhibit PHOSPHO1. [Related pubchem assays (depositor defined):AID1545, AID1565, AID1574].
The target of experiment [22] is C-C chemokine receptor type 6 (Homo sapiens, UniProt P51684). In words: antagonism of CCR6 beta-arrestin recruitment – cell-based, luminescent beta-arrestin readout, dose response (AID 504728). It counts as functional.
In experiment [23] the target is Beta-galactosidase (Escherichia coli, UniProt Q8VNN2). Put plainly: detection-enzyme interference by beta-gal modulators – biochemical, E. coli enzyme, set 3, artefact control for CCR6 antagonist project, dose response (AID 504712). The format is functional.
Experiment [24] in a line: Luminescence Cell-Based Dose Retest to Confirm Inhibitors of Cancer Stem Cells. [Related pubchem assays (depositor defined):AID2717, AID2721]. The format is functional. The conditions noted are these: Homo sapiens.

By AC50 is commonly meant the concentration giving half of the maximal activity seen. In general, IC50 refers to the midpoint of a concentration-inhibition curve. Usually EC50 stands for the concentration needed to bring the measured effect to its halfway point.

The structures appear in SMILES notation. Calls of active or inactive are those of the source.

T2 sequence (Q00975 whole entry): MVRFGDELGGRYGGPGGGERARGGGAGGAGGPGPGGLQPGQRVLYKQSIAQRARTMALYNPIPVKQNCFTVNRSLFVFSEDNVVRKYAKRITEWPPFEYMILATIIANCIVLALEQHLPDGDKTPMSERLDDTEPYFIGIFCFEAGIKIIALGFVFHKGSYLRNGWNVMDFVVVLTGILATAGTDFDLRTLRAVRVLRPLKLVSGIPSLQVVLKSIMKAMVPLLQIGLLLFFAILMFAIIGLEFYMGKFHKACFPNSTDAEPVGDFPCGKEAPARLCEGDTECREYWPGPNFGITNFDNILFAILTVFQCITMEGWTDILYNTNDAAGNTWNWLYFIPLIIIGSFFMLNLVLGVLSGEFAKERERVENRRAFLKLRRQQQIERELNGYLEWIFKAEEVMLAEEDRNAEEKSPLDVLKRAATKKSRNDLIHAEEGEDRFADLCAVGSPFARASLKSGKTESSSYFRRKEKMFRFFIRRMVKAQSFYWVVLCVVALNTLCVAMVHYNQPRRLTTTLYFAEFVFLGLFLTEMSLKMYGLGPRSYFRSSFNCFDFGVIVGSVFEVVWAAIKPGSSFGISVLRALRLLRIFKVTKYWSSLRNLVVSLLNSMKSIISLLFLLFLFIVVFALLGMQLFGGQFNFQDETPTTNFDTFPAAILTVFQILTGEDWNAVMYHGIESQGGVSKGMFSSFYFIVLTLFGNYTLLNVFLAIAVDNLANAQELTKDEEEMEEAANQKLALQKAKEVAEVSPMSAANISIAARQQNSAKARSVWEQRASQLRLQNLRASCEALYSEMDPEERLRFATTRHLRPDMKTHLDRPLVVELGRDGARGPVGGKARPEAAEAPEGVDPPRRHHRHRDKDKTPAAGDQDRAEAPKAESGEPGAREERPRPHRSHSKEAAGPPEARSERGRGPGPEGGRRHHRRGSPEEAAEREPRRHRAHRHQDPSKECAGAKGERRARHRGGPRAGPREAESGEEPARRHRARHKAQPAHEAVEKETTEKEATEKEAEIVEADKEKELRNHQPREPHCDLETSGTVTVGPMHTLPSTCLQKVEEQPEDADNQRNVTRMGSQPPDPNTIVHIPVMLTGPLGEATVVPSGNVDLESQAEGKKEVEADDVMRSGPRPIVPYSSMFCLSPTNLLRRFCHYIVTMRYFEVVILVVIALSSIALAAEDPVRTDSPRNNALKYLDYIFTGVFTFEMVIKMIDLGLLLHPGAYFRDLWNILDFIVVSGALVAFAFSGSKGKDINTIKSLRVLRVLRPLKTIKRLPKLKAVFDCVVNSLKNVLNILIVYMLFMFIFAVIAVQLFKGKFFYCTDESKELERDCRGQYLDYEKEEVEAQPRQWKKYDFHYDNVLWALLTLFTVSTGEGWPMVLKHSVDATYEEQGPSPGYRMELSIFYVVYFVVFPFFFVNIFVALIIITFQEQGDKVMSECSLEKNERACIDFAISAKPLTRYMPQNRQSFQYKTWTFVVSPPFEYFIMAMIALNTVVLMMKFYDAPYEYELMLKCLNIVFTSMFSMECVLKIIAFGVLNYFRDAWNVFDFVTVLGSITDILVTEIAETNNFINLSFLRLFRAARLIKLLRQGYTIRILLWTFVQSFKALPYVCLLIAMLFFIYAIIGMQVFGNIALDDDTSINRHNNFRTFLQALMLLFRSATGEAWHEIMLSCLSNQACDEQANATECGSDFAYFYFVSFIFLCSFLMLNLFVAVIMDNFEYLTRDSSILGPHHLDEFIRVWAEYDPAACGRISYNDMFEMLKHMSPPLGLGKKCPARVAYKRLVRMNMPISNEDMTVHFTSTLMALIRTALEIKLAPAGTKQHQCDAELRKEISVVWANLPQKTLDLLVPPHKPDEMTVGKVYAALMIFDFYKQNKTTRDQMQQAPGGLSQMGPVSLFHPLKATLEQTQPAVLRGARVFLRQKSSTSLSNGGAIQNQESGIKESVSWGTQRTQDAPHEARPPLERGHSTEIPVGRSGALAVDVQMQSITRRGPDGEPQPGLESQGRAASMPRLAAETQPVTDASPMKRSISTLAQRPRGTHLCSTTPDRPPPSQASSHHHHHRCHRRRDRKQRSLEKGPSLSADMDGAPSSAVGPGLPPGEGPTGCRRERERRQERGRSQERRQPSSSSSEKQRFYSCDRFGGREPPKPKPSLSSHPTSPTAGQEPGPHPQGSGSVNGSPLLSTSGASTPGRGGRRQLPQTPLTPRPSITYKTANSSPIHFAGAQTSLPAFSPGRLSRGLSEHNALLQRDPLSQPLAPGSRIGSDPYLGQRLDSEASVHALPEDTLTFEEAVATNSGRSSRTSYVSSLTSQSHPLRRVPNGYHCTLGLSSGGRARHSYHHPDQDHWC
T2 sequence (Q02410 whole entry): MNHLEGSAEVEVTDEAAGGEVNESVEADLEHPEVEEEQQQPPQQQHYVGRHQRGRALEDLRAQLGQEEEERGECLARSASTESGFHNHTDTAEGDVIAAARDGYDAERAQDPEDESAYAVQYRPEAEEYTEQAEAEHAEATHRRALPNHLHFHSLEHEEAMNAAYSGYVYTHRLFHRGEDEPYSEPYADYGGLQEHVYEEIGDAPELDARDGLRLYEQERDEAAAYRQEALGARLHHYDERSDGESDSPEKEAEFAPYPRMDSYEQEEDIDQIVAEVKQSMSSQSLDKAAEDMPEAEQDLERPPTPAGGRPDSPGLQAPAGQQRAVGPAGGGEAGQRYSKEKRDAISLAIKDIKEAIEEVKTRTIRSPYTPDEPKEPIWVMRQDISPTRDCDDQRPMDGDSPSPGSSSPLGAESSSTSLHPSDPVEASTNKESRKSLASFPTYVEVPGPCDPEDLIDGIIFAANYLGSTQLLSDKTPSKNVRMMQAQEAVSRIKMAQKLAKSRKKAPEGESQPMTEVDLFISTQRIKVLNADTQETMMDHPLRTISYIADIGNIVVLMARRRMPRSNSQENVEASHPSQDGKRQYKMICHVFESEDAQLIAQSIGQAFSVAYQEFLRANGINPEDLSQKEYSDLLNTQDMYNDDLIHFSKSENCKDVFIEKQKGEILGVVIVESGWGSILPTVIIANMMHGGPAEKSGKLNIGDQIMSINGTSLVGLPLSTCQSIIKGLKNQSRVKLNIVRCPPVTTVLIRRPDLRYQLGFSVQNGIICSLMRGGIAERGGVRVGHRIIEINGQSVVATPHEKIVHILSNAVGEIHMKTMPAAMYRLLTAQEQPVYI
Chain of Photoreceptor-specific nuclear receptor (Q9Y5X4 whole entry, the tested form may be a part): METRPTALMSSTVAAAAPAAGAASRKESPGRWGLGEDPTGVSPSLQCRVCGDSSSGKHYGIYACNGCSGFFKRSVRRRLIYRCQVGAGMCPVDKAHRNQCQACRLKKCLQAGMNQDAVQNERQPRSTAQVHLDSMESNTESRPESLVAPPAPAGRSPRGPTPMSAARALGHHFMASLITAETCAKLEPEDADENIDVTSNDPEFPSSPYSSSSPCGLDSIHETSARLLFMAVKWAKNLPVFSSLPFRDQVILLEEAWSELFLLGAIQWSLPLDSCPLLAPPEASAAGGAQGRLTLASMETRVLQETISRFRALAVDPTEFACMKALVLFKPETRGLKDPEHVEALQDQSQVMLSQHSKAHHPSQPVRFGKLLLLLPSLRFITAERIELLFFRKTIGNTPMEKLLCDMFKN
Chain of Acyl-homoserine lactone acylase PvdQ (Q9I194 24-193 limits assumed): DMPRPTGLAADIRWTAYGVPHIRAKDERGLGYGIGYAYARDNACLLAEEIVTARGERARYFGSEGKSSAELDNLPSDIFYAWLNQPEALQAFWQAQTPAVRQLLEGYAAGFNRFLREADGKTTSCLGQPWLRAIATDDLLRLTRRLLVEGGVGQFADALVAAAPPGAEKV
Chain of Acyl-homoserine lactone acylase PvdQ (Q9I194 217-762 limits assumed): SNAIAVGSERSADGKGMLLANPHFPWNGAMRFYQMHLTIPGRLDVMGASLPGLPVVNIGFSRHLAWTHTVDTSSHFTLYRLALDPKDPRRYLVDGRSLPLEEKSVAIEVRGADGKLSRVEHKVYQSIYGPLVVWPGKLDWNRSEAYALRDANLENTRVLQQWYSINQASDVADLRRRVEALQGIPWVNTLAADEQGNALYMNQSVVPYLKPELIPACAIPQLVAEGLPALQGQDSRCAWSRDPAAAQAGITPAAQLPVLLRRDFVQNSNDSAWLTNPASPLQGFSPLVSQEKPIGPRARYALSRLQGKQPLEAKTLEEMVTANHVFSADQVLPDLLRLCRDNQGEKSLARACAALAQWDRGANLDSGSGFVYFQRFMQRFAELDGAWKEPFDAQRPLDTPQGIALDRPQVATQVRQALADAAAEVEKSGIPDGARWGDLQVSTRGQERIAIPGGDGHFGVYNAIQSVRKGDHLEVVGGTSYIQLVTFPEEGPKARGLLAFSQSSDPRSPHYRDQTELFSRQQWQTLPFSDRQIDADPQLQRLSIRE
Chain of Phosphoethanolamine/phosphocholine phosphatase (Q8TCT1 whole entry): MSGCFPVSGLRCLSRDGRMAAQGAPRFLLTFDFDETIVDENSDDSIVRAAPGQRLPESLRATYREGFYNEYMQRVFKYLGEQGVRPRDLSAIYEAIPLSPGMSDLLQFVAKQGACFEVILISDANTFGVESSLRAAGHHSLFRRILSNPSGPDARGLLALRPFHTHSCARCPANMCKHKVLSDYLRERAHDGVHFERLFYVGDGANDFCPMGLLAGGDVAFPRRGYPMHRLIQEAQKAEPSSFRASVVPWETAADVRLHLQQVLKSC
Chain of Phosphomannomutase 2 (O15305 whole entry): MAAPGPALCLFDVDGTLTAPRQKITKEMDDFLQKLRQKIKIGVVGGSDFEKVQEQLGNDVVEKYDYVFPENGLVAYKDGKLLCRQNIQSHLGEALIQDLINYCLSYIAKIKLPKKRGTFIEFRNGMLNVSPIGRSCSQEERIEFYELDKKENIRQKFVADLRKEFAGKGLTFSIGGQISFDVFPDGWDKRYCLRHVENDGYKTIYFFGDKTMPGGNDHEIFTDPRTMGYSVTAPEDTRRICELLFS

Take `CCNC(=O)COc1ccc2ccccc2c1`: the AC50 in experiment [1] is 11.7 µM (active).

In the case of `O=C1NC(=O)N(c2ccc3c(c2)OCO3)C(=O)/C1=C\c1ccc(N2CCCCC2)o1`, the IC50 in experiment [2] is > 55.7 µM (not active); in experiment [3] it was 21 µM (not active). Besides, in experiment [4], the EC50 was > 100 µM (active).

For the compound `Cc1cc(C)c2c(=O)n(CC(=O)N3CCC(N4CCCCC4)CC3)sc2n1`, the IC50 in experiment [5] was 28.1 µM (active); in experiment [7] it was 37 µM (inactive); in experiment [8] it was 16.2 µM (active); in experiment [9], > 50 µM (inactive); in [10], 9.83 µM (active). Moreover, the EC50 in experiment [6] is 22.6 µM (active); in experiment [11] it was 18.6 µM (active).

On to `Cc1ccsc1C(=O)OCC(=O)c1cc(C)n(CC2CCCO2)c1C` (centres undefined), for which the EC50 was < 0.1 µM (active) in [12]; 0.322 µM (active) in experiment [13]; 0.325 µM (active) in [15]; 0.9 µM (active) in [16]; 8.04 µM (active) in experiment [17]; 3.3 µM (active) in experiment [18]. The half-maximal inhibitory concentration (IC50) in experiment [14] is 6.9 µM (active).

As to `Cc1c(Cl)cccc1-n1sc2cc(F)ccc2c1=O`, the IC50 was 28.6 µM (active) in experiment [19], 8.74 µM (active) in experiment [20] and 1.53 µM (inactive) in experiment [21].

For the compound `C=C(CC[C@@H](O)C(C)(C)O)[C@H]1CC[C@]2(C)[C@@H]1CC[C@@H]1[C@@]3(C)CC[C@H](O)C(C)(C)C3CC[C@]12C` (some centres undefined), the IC50 in experiment [22] and in [23] was > 66.6 µM (inactive) each time. Moreover, the AC50 in [24] is 0.561 µM (active).

These data come from ChEMBL document CHEMBL1201862, “PubChem BioAssay data set” (2004).
